Test results published in US8501816B2, “Antitussive compositions comprising memantine” (Cerecor, Inc., priority 2010, dated 2013).
Entries after “also recorded” stand apart in the source; their conditions may differ. Marks after values point to notes of the source that are not given here.

Tests used:
NMDA receptors = conditions: cited from earlier work
[1] = tested on: histamine neuron activity; conditions: cited from earlier work
[2] = tested on: citric acid induced cough; assay: Citric acid induced cough in conscious guinea pigs; conditions: for ≧15 Cumulative coughs/total number of guinea pigs: 1 hour pre-citric acid challenge; for Cumulative coughs evoked by citric acid, 0.1M Citric Acid / Cumulative coughs evoked by citric acid, 0.3M Citric Acid: MMT 10 mg/kg intraperitoneal
Description: Male Hartley guinea pigs (200-700 g) were studied and all experiments were first approved by the institutional Animal Care and Use Committee.
Animals were placed in a transparent chamber (Buxco Research Systems, Wilmington, N.C.) with a continuous flow of air and exposed to increasing concentrations of citric acid (0.01 M-0.3 M) is delivered by an ultrasonic nebulizer generating aerosol particles of 3-6 μm diameter. Coughs were counted during a 5 minute nebulization period and over the subsequent 5 minutes with the assistance of sound and pressure monitoring from the chamber. Respiratory rate and tidal volume were monitored throughout via a calibrated pressure transducer (Emka Technologies, Falls Church, Va.).
Each of these drugs was administered orally in half-log increments (e.g. 3 mg/kg, 10 mg/kg, 30 mg/kg) in an unpaired experimental design (each animal received only 1 dose of drug). The drugs were administered 60 minutes prior to citric acid challenge, which consisted of 5 minute challenges with aerosols of increasing concentrations of citric acid (0.01-0.3M), with 5 minute intervals in between escalating doses of the tussive stimulus.

[3] = Pharmacokinetics of memantine with sodium hydroxide, menthol and NH4Cl in male beagle dogs (Example 3); format: in vivo, beagle dog; conditions: MMT 0.4 mg/kg; for Cmax/Dose: Route Oral; for AUC(0-inf) / AUC(0-t) / Cmax / Tmax / half-life: male, beagle, dog, plasma, po, 0.4 mg/kg
[4] = Pharmacokinetics of memantine after oral or buccal dosing in male beagle dogs (Example 2); format: in vivo, beagle dog; parameters: Cmax/Dose: unit not given beside the values; conditions: for AUC(0-inf) / AUC(0-t) / Cmax / Tmax / half-life: male, beagle, dog, plasma, 0.4 mg/kg
[5] = Sedation and side effects observed in the cough studies
sigma receptor = conditions: cited from earlier work
bradykinin induced cough = assay: Bradykinin induced cough in conscious guinea pigs; format: in vivo, guinea pig
Description: (§1) Using a similar chamber and nebulizer system, animals were treated first with aerosolized peptidase inhibitors (captopril 0.1 μM and thiorphan 0.1 μM, 5 minutes nebulization) to reduce bradykinin degradation and enhance tussive responses evoked by bradykinin (unpublished observations). Animals were then exposed to increasing concentrations of aerosolized bradykinin (0.1-3 mg/mL), again for 5 minute periods. Coughs are counted during this and the subsequent 5 minutes. Pressure changes within the chamber are used to monitor respiratory rate (Biopac Systems Inc, Goleta, Calif.).

Caco-2 cells = assay: Memantine in vitro intestinal permeability (Caco-2 cells); format: in vitro ADME; conditions: pH 5.0 to 10.5
H3-receptor = conditions: hypothalamus, after 5 mg/kg twice daily for 5 days; cited from earlier work
[6] = treated for dementia, recent review; cited from earlier work
[7] = cited from earlier work
[8] = Respiratory parameters during cough challenge; format: in vivo, guinea pig; conditions: 10 mg/kg memantine, p=0.012
Description: as §1

[9] = 3.3 mg/ml sodium hydroxide + 5 mg/ml menthol
[10] = 3.3 mg/ml sodium hydroxide + 5 mg/ml menthol + 20 mg/kg NH4Cl
[11] = 3.3 mg/ml sodium hydroxide + 5 mg/ml menthol + 30 mg/kg NH4Cl
[12] = MMT 0.4 mg/kg Buccal + 3.3 mg/ml NaOH
[13] = MMT 0.4 mg/kg Buccal + 7.5 mg/ml Na2CO3
[14] = MMT 0.4 mg/kg Buccal, Control (water)
[15] = po, MMT 0.4 mg/kg Oral + 15 mg/kg NH4Cl
[16] = po, MMT 0.4 mg/kg Oral + 25 mg/kg NH4Cl
[17] = po, MMT 0.4 mg/kg Oral + 30 mg/kg NH4Cl
[18] = po, MMT 0.4 mg/kg Oral, ControlAve

CC12CC3CC(C)(C1)CC(N)(C3)C2 [Memantine, 3,5-dimethyltricyclo[3.3.1.1^3,7]decan-1-amine]
ED50 of inhibition of ex vivo [3H]MK-801 binding (NMDA receptors): 1.8 ± 1.3 mg/kg
ED50 of t-MeHA increase ([1]; acute administration): 0.3 ± 0.1 mg/kg
increase of tele-methylhistamine (t-MeHA) levels in the brain ([1]; acute administration): 60%
t-MeHA levels enhanced by ([1]; two days after 5 mg/kg twice daily for 5 days): 50±7%
≧15 Cumulative coughs/total number of guinea pigs ([2]; 0.01 mg/kg po): 2/5
≧15 Cumulative coughs/total number of guinea pigs ([2]; 0.1 mg/kg po): 1/5
Cumulative numbers of cough, median, citric acid 0.01M ([2]; 1 mg/kg intraperitoneally): 0.0
Cumulative numbers of cough, median, citric acid 0.1M ([2]; 1 mg/kg intraperitoneally): 5.0
Cumulative numbers of cough, median, citric acid 0.3M ([2]; 1 mg/kg intraperitoneally): 14.0
≧15 Cumulative coughs/total number of guinea pigs ([2]; 1 mg/kg po): 2/7
Cumulative numbers of cough, median, citric acid 0.01M ([2]; 3 mg/kg intraperitoneally): 0.0
Cumulative numbers of cough, median, citric acid 0.1M ([2]; 3 mg/kg intraperitoneally): 3.0
Cumulative numbers of cough, median, citric acid 0.3M ([2]; 3 mg/kg intraperitoneally): 24.5
≧15 Cumulative coughs/total number of guinea pigs ([2]; 3 mg/kg po): 0/5
Cumulative numbers of cough, median, citric acid 0.01M ([2]; 10 mg/kg intraperitoneally): 0.0
Cumulative numbers of cough, median, citric acid 0.1M ([2]; 10 mg/kg intraperitoneally): 0.0
Cumulative numbers of cough, median, citric acid 0.3M ([2]; 10 mg/kg intraperitoneally): 1.5*
Effect on cumulative number of coughs evoked by citric acid (0.01-0.3M) compared to controls ([2]; 10 mg/kg intraperitoneally): significantly reduced the cumulative number of coughs; also recorded: markedly reduced the number of cumulative coughs
≧15 Cumulative coughs/total number of guinea pigs ([2]; 10 mg/kg po): 0/7
Cumulative numbers of cough, median, citric acid 0.01M ([2]; 30 mg/kg intraperitoneally): 0.0
Cumulative numbers of cough, median, citric acid 0.1M ([2]; 30 mg/kg intraperitoneally): 0.0*
Cumulative numbers of cough, median, citric acid 0.3M ([2]; 30 mg/kg intraperitoneally): 1.5*
Effect on cumulative number of coughs evoked by citric acid (0.01-0.3M) compared to controls ([2]; 30 mg/kg intraperitoneally): significantly reduced the cumulative number of coughs; also recorded: similarly reduced cough responses
≧15 Cumulative coughs/total number of guinea pigs ([2]; 30 mg/kg po): 0/4
Effect on cumulative coughs evoked by citric acid over vehicle ([2]; 1 and 3 mg/kg): no significant effect
Cumulative coughs evoked by citric acid, 0.1M Citric Acid ([2]; 0.5 hr pre-challenge): 2 ± 2
Cumulative coughs evoked by citric acid, 0.3M Citric Acid ([2]; 0.5 hr pre-challenge): 5 ± 3
Cumulative coughs evoked by citric acid, 0.1M Citric Acid ([2]; 1 hr pre-challenge): 1 ± 1
Cumulative coughs evoked by citric acid, 0.3M Citric Acid ([2]; 1 hr pre-challenge): 7 ± 3
Cumulative coughs evoked by citric acid, 0.1M Citric Acid ([2]; 2 hr pre-challenge): 0 ± 0
Cumulative coughs evoked by citric acid, 0.3M Citric Acid ([2]; 2 hr pre-challenge): 7 ± 4
Cumulative coughs evoked by citric acid, 0.1M Citric Acid ([2]; 4 hr pre-challenge): 6 ± 5
Cumulative coughs evoked by citric acid, 0.3M Citric Acid ([2]; 4 hr pre-challenge): 15 ± 6
Levels of cough, oral compared to parenteral administration ([2]; doses of 1 mg/kg or more (FIG. 8)): substantially reduced levels of cough compared to parenterally administered memantine
time to the first cough during the citric acid challenge ([2]; memantine 10 mg/kg vs vehicle, p=0.007): shorter for vehicle than memantine 10 mg/kg
Effect of single agent on citric acid (0.01-0.3M) induced cough ([2]; oral, 60 minutes prior, memantine 3, guaifenesin 100, diphenhydramine 10, benzonatate 30, ambroxol 100 mg/kg): failed to inhibit cough
Percentage of animals coughing ≧15 times, effect relative to controls ([2]; orally, doses around 0.1-1 mg/kg (FIG. 7)): reduces cough relative to controls
Cmax/Dose [3, 9]: 18.16
Cmax/Dose [3, 10]: 26.03
Cmax/Dose [3, 11]: 9.18
Cmax/Dose ([3]; Control): 7.91
AUC(0-inf) [3, 9]: 126 ng·h/mL
AUC(0-t) [3, 9]: 113 ng·h/mL
Cmax [3, 9]: 77 ng/mL
Tmax [3, 9]: 0.2 h
half-life [3, 9]: 5.05 h
AUC(0-inf) [3, 10]: 143 ng·h/mL
AUC(0-t) [3, 10]: 134 ng·h/mL
Cmax [3, 10]: 126 ng/mL
Tmax [3, 10]: 0.15 h
half-life [3, 10]: 4.6 h
AUC(0-inf) [3, 11]: 125 ng·h/mL
AUC(0-t) [3, 11]: 103 ng·h/mL
Cmax [3, 11]: 43 ng/mL
Tmax [3, 11]: 0.25 h
half-life [3, 11]: 4.33 h
AUC(0-inf) ([3]; Control): 132 ng·h/mL
AUC(0-t) ([3]; Control): 120 ng·h/mL
Cmax ([3]; Control): 34.5 ng/mL
Tmax ([3]; Control): 0.75 h
half-life ([3]; Control): 7.18 h
Cmax/Dose ([4]; MMT 0.4 mg/kg Oral + 15 mg/kg NH4Cl): 6.8
Cmax/Dose ([4]; MMT 0.4 mg/kg Oral + 25 mg/kg NH4Cl): 5.2
Cmax/Dose ([4]; MMT 0.4 mg/kg Oral + 30 mg/kg NH4Cl): 5.4
Cmax/Dose ([4]; MMT 0.4 mg/kg Oral, ControlAve): 5.2
AUC(0-inf) [4, 12]: 112 ng·h/mL
AUC(0-t) [4, 12]: 108 ng·h/mL
Cmax [4, 12]: 52 ng/mL
Tmax [4, 12]: 0.25 h
half-life [4, 12]: 5.2 h
AUC(0-t) [4, 13]: 179 ng·h/mL
Tmax [4, 13]: 0.45 h
half-life [4, 13]: 4.5 h
Cmax [4, 14]: 23 ng/mL
Tmax [4, 14]: 0.75 h
half-life [4, 14]: 5.2 h
AUC(0-inf) [4, 15]: 256 ng·h/mL
AUC(0-t) [4, 15]: 233 ng·h/mL
Cmax [4, 15]: 25 ng/mL
Tmax [4, 15]: 2 h
half-life [4, 15]: 6.7 h
AUC(0-inf) [4, 16]: 179 ng·h/mL
AUC(0-t) [4, 16]: 169 ng·h/mL
Cmax [4, 16]: 20 ng/mL
Tmax [4, 16]: 1.5 h
half-life [4, 16]: 5.5 h
AUC(0-inf) [4, 17]: 168 ng·h/mL
AUC(0-t) [4, 17]: 163 ng·h/mL
Cmax [4, 17]: 25 ng/mL
Tmax [4, 17]: 1.1 h
half-life [4, 17]: 4.8 h
AUC(0-inf) [4, 18]: 210 ng·h/mL
AUC(0-t) [4, 18]: 190 ng·h/mL
Cmax [4, 18]: 22 ng/mL
Tmax [4, 18]: 1.7 h
half-life [4, 18]: 6.5 h
Side effects / sedation ([5]; memantine 10 mg/kg intraperitoneally): No side effects; also recorded: induced no sedation; also recorded: no sedating effects
Side effects ([5]; memantine 30 mg/kg): slight behavioral changes
interaction with receptor (sigma receptor): does not interact
Effect on number of coughs evoked by bradykinin aerosols compared to control (bradykinin induced cough; FIG. 4, p<0.01): significantly reduced the number of coughs evoked by bradykinin
Cumulative coughs, 0.3M bradykinin challenge (bradykinin induced cough; MMT 3 mg/kg i.p. 1 hour pre-bradykinin challenge): 20 ± 5
Cumulative coughs, 0.3M bradykinin challenge (bradykinin induced cough; MMT 10 mg/kg i.p. 1 hour pre-bradykinin challenge): 1.3±0.8
Cumulative coughs, 0.3M bradykinin challenge (bradykinin induced cough; MMT 10 mg/kg i.p. 1 hour pre-bradykinin challenge, listed as MMT): 1.3 ± 0.8
cumulative number of coughs evoked by 0.1-3 mg/mL bradykinin, median (bradykinin induced cough; memantine 10 mg/kg, controls 16 coughs): 0.0 coughs
permeability in Caco-2 cells versus pH (Caco-2 cells): gradually increases with an increase in pH
density of H3-receptor binding sites increased by (H3-receptor): 141±24%
adverse effects reported, share of those treated [6]: < 10%
solubility ([7]; all physiological pHs): > 30 mg/mL
Biopharmaceutics Classification System (BCS) class ([7]; highly soluble/highly permeable): class I
Change of breathing frequency induced by bradykinin [8]: small increase in breathing frequency
